{"source": "patent US6770669B1", "about": "“Amidine derivatives, preparation and use thereof as medicines” (Societe de Conseils de Recherches et d'Applications …, priority 1999, dated 2004)", "key": {"[1]": {"target": "T1, neuronal constitutive NO synthase (Rattus norvegicus, UniProt P29476)", "T1 construct": "The reaction is initiated by adding 50 μl of homogenate; from tissue; host or cells: cerebellum of Sprague-Dawley rats (homogenate centrifuged at 21000 g)", "assay": "Effects on neuronal constitutive NO synthase of a rat's cerebellum ([3H]L-arginine to [3H]L-citrulline conversion)", "assay_type": "biochemical", "settings": "rat cerebellum homogenate; conversion of [3H]L-arginine to [3H]L-citrulline", "description": "Study of the Effects on Neuronal Constitutive NO Synthase of a Rat's Cerebellum\nThe inhibitory activity of the products of the invention is determined by measuring their effects on the conversion by NO synthase of [^3H]L-arginine to [^3H]L-citrulline according to the modified method of Bredt and Snyder (Proc. Natl. Acad. Sci. USA. (1990) 87: 682-685). The cerebellums of Sprague-Dawley rats (300 g—Charles River) are rapidly removed, dissected at 4° C. and homogenized in a volume of extraction buffer (HEPES 50 mM, EDTA 1 mM, pH 7.4, pepstatin A […], leupeptin […]). The homogenates are then centrifuged at 21000 g for 15 min at 4° C. Dosage is carried out in glass test tubes in which 100 μl of incubation buffer containing 100 mM of HEPES (pH 7.4), 2 mM of EDTA, 2.5 mM of CaCl2, 2 mM of dithiotreitol, 2 mM of reduced NADPH and 10 μg/ml of calmodulin are distributed. 25 μl of a solution containing 100 nM of [^3H]L-arginine (Specific activity: 56.4 Ci/mmole, Amersham) and 40 μM of non-radioactive L-arginine is added. The reaction is initiated by adding 50 μl of homogenate, the final volume being 200 μl (the missing 25 μl are either water or the tested product). […] After passing the samples through a 1 ml column of DOWEX resin, the radioactivity is quantified by a liquid scintillation spectrometer."}, "MAO-B": {"target": "T2, MAO-B (Rattus norvegicus, UniProt P19643)", "T2 construct": "100 μl of the mitochondrial preparation (2 mg protein/ml) is incubated for 1 hour at 37° C; from tissue; host or cells: rat cortex, mitochondrial fraction", "T2 sequence (P19643 1-520)": "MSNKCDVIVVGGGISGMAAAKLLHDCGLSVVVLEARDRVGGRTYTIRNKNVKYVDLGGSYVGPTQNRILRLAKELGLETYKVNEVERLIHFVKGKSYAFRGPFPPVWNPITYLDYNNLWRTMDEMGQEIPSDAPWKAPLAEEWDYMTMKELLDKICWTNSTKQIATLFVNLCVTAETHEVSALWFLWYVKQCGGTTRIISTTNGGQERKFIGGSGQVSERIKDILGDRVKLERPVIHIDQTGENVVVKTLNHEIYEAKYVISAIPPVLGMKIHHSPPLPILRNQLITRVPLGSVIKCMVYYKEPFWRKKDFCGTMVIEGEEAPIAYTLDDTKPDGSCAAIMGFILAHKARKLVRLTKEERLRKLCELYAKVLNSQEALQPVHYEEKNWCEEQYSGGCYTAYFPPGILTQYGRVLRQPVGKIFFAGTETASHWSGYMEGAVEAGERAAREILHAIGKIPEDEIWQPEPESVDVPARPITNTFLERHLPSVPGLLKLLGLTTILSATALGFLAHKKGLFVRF", "assay": "Effects on the bond of a specific ligand of MAO-B, [3H]Ro 19-6327 (rat cortex mitochondrial preparation)", "assay_type": "binding", "settings": "[3H]Ro 19-6327 33 nM, 1 hour at 37° C.", "description": "Study of the Effects on the Bond of a Specific Ligand of MAO-B, [^3H]Ro 19-6327\nThe inhibitory activity of the products of the invention is determined by measuring their effects on the bond of a specific ligand of MAO-B, [^3H]Ro 19-6327.\nA) Mitochondrial Preparation of the Cortex of Rats\nThe mitochondrial preparation of the cortex of rats is carried out according to the method described in Cesura A M, Galva M D, Imhof R and Da Prada M, J. Neurochem. 48 (1987), 170-176. The rats are decapitated and their cortex is removed, homogenized in 9 volumes of a 0.32 M sucrose buffer, buffered to pH 7.4 with 5 mM of HEPES, then centrifuged at 800 g for 20 minutes. The supernatants are recovered and the pellets are washed twice with the 0.32 M sucrose buffer as previously. The collected supernatants are centrifuged at 10000 g for 20 minutes. […] The proteinic content of the preparation is determined by the Lowry method.\n100 μl of the mitochondrial preparation (2 mg protein/ml) is incubated for 1 hour at 37° C. in an Eppendorf tube, in the presence of 100 μl of [^3H]Ro 19-6327 (33 nM, final concentration) and 100 μl of Tris buffer containing or not containing the inhibitors. […] The radioactivity is determined by counting the samples using liquid scintillation."}}, "data": [{"smiles": "C#CCN(C)Cc1ccc(N=C(N)c2cccs2)cc1", "note": "[Example 1, N′-(4-{[methyl(2-propynyl)amino]methyl}phenyl)-2-thiophenecarboximidamide]", "values": [{"measurement": "IC50", "setting": "[1]", "result": "< 3.5", "unit": "µM"}, {"measurement": "IC50", "setting": "MAO-B", "result": "< 25", "unit": "µM"}, {"measurement": "melting point", "result": "109 to 110", "unit": "°C"}]}]}
